From ChEMBL document CHEMBL1201862, “PubChem BioAssay data set” (2004)
The source made the active and inactive calls.

Assays:
[1] = molecular target: T1, RNA-binding protein pos-1 (Caenorhabditis elegans, UniProt G5EF15); experiment: disruptors of C. elegans POS-1 RNA interaction – biochemical, fluorescence polarization, dose response (AID 1964);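 note: purified POS-1 fused to maltose binding protein made in E. coli; potency of compounds blocking POS-1 binding to fluorescent RNA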
T1 sequence (G5EF15 whole entry): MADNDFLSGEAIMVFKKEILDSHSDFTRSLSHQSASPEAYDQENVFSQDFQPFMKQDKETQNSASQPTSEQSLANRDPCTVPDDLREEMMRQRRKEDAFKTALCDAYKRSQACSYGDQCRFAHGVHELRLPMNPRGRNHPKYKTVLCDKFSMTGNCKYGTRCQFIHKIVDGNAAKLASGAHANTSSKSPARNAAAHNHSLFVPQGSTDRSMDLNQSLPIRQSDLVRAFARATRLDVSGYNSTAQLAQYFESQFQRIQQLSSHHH

[2] = tested on: Streptococcus sp. 'group A'; experiment: Streptococcus pyogenes SK(-)GAS viability under kanamycin – luminescence, BacTiterGlo, confirmation, counter-screen for streptokinase expression inhibitor project, dose response (AID 1900); type: functional, organism-based
[3] = molecular target: T2, Zinc finger protein mex-5 (Caenorhabditis elegans, UniProt Q9XUB2); experiment: potency of MEX-5 RNA-binding blockers – biochemical, C. elegans, fluorescence polarization, dose response (AID 1960)
T2 sequence (Q9XUB2 whole entry): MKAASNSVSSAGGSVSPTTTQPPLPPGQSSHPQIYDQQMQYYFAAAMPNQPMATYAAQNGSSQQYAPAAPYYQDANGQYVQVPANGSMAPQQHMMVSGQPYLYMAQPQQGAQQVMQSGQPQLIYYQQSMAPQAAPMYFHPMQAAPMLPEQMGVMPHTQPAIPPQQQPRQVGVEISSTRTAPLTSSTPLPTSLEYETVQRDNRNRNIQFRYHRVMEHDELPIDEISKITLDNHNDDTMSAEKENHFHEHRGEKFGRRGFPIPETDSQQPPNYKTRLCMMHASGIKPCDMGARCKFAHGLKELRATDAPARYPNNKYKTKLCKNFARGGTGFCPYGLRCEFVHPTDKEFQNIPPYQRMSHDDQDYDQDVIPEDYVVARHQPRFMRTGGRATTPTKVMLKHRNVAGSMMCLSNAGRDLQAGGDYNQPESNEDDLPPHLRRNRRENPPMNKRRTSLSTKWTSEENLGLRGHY

Streptococcus = experiment: GAS UMAA2166 growth inhibition – luminescence, BacTiterGlo, counter-screen for streptokinase expression inhibitor project, dose response (AID 1915); type: functional, organism-based;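 note: potency for reduction of bacterial viability or growth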
[4] = molecular target: T3, Rac GTPase-activating protein 1 (Homo sapiens, UniProt Q9H0H5); experiment: blockers of MgcRacGAP-driven Rac1 GTP hydrolysis – biochemical, ADP Hunter fluorescence, primary and confirmatory, confirmation (AID 624330); type: functional
T3 sequence (Q9H0H5 whole entry): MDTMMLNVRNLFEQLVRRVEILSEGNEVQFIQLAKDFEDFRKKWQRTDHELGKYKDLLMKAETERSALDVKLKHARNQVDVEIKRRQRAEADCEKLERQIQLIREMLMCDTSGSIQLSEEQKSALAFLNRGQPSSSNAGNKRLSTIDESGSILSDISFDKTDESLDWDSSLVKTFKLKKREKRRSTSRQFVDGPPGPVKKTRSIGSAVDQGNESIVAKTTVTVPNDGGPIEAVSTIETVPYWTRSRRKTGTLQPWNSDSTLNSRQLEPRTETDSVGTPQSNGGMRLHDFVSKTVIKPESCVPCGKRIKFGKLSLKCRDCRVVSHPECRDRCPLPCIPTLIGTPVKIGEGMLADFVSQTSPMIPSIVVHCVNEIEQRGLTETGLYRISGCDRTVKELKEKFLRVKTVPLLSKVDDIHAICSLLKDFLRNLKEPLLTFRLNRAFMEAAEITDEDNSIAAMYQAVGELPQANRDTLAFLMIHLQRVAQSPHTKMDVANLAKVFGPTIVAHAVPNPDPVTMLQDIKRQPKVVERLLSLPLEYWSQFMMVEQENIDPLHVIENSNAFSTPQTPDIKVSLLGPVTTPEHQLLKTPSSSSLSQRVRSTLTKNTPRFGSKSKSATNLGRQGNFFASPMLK

Protein RecA = molecular target: T4, Protein RecA (Mycobacterium tuberculosis, UniProt P9WHJ3); experiment: Fluorescence Cell-Free Homogeneous Dose Retest to Identify Inhibitors of RecA-Intein Splicing Activity. [Related pubchem assays (depositor defined):AID2097, AID2223, AID489010, AID492950]; type: functional
T4 sequence (P9WHJ3 whole entry): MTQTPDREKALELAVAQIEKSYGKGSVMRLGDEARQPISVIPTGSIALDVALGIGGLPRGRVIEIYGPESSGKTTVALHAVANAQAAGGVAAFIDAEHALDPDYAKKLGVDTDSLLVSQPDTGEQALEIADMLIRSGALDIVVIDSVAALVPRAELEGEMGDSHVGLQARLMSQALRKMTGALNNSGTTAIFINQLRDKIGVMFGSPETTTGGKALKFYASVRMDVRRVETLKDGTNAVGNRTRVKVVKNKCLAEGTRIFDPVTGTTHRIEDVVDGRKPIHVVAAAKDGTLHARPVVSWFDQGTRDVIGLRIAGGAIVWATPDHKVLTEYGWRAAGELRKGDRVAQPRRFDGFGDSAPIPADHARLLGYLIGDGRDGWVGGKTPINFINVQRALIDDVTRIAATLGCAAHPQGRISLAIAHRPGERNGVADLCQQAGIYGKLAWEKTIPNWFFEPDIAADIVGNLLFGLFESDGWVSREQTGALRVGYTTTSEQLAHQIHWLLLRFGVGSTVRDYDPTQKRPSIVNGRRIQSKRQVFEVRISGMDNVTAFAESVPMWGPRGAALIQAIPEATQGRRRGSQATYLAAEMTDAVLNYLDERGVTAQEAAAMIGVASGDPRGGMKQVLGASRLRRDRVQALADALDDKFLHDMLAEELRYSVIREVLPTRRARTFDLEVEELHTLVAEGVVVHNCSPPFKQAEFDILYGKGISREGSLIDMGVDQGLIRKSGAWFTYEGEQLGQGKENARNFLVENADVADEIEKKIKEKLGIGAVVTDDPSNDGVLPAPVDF

[5] = molecular target: T5, Replicative DNA helicase DnaB (Mycobacterium tuberculosis, UniProt P9WMR3); experiment: DnaB intein splicing inhibitors, dose response, biochemical, cell-free fluorescence (AID 449749); type: functional
T5 sequence (P9WMR3 whole entry): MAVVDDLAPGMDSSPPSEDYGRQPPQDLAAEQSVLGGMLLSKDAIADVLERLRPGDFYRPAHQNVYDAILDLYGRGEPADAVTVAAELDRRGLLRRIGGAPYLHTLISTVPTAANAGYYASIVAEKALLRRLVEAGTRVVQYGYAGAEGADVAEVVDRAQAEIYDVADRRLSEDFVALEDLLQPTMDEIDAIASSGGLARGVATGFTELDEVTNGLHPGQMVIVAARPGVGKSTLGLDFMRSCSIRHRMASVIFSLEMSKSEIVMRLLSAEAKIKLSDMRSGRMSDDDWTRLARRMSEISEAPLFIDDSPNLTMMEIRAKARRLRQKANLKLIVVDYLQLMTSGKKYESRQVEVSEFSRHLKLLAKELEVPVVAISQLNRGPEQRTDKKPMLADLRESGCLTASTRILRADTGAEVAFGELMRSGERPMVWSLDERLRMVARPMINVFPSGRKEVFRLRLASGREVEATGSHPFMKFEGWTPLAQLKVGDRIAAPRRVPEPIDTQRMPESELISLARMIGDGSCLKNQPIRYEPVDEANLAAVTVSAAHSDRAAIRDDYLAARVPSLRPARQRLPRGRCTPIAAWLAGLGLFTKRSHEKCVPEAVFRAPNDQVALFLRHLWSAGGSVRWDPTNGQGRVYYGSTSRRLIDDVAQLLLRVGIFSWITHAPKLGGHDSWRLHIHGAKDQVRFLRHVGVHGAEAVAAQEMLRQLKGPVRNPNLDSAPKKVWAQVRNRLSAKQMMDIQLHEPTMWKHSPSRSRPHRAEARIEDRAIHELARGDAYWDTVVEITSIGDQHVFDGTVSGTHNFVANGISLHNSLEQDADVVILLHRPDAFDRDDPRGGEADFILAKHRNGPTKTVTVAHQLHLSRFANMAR

Cytochrome P450 2C19 = Cytochrome P450 2C19 (Homo sapiens, UniProt P33261); experiment: Cytochrome panel assay with activity outcomes. Panel member name: p450-cyp2c19 Compounds with AC50 equal or less than 10 uM are considered active; type: functional; details: read-out: AC50
Cytochrome P450 2D6 = Cytochrome P450 2D6 (Homo sapiens, UniProt P10635);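 note: CYP2D6 member of a cytochrome P450 panel assay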
Cytochrome P450 3A4 = Cytochrome P450 3A4 (Homo sapiens, UniProt P08684);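 note: CYP3A4 tested as one member of a cytochrome P450 panel screen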
Cytochrome P450 2C9 = Cytochrome P450 2C9 (Homo sapiens, UniProt P11712)
Cytochrome P450 1A2 = molecular target: T6, Cytochrome P450 1A2 (Homo sapiens, UniProt P05177);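 note: PubChem cytochrome P450 panel assay, CYP1A2 panel member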
T6 sequence (P05177 whole entry): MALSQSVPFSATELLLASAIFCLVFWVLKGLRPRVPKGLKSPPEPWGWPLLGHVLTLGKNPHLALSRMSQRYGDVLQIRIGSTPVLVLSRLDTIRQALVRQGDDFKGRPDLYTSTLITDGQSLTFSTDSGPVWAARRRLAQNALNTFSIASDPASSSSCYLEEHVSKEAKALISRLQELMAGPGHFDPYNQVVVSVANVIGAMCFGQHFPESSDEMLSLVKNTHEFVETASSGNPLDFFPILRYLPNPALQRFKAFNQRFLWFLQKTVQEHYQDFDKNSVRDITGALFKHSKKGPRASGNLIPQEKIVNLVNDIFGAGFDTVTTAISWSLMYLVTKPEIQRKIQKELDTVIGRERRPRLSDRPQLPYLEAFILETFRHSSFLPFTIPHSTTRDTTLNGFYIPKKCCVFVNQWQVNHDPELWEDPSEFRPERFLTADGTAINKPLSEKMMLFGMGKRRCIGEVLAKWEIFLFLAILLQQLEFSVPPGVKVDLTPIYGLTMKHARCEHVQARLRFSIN

Chain of Cytochrome P450 2C19 (P33261 whole entry): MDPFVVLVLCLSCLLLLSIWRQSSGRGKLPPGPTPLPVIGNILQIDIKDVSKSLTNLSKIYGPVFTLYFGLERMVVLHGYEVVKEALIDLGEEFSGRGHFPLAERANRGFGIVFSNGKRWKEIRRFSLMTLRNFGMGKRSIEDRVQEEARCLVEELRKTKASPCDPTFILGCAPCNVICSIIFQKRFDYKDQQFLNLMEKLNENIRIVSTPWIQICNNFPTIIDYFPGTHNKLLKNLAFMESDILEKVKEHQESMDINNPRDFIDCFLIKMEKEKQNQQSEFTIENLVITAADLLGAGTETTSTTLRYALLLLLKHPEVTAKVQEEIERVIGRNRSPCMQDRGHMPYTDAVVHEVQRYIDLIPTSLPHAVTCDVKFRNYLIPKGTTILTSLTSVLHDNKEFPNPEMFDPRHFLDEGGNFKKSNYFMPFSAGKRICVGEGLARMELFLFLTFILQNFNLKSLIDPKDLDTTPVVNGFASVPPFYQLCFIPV
Chain of Cytochrome P450 2D6 (P10635 whole entry): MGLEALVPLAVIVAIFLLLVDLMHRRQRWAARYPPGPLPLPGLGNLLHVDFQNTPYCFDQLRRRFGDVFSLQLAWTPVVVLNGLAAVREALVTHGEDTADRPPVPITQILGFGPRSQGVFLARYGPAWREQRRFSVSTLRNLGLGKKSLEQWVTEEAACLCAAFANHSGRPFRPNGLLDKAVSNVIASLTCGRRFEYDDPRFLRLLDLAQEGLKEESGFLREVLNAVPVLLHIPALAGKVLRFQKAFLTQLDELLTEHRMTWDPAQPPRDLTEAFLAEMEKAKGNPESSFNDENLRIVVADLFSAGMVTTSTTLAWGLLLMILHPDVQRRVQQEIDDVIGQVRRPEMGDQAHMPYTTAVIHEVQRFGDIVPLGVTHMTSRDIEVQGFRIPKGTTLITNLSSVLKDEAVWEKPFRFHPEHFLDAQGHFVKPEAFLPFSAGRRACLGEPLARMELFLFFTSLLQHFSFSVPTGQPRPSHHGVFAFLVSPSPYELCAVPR
Chain of Cytochrome P450 2C9 (P11712 whole entry): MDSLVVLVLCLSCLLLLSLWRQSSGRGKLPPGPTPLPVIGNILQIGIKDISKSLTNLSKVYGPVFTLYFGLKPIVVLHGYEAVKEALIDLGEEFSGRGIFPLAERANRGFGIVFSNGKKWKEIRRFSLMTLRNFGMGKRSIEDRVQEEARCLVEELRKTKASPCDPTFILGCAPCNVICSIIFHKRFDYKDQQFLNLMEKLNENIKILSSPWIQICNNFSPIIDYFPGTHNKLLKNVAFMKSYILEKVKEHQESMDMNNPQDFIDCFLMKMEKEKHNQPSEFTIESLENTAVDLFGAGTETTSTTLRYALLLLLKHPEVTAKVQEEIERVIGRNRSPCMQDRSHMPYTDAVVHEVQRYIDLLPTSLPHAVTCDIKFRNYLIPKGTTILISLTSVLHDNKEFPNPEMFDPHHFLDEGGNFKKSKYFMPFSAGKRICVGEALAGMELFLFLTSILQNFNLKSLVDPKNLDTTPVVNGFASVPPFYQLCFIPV
Chain of Cytochrome P450 3A4 (P08684 whole entry): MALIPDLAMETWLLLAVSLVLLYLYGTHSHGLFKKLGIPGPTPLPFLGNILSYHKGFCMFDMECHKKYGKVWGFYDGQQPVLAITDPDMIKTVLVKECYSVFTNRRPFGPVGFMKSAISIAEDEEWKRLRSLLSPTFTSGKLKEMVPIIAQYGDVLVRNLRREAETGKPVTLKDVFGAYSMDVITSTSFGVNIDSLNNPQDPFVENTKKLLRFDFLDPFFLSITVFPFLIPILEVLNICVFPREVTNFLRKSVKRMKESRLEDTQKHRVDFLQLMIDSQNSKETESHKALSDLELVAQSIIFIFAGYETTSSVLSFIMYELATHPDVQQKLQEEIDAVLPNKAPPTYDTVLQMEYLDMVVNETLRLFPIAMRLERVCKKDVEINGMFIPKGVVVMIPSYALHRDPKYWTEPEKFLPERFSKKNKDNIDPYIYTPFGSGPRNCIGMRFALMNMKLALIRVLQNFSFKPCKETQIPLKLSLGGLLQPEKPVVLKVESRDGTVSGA

Compound: CCOC(=O)N1CCN(C(=O)c2ccc3c(c2)NC(=O)/C(=C\c2ccc(OC)c(OC)c2)S3)CC1
- EC50 [1]: > 300 µM (not active)
- EC50 [2]: 0.875 µM (active)
- EC50 [3]: > 300 µM (inconclusive)
- EC50 (Streptococcus): 5.67 µM (active)

Compound: O=C(O)c1cc(-n2cccc2)ccc1N1CCOCC1
- EC50 [1]: > 300 µM (not active)
- EC50 [3]: 74.3 µM (active)

Compound: NC(=O)c1ccsc1N
- EC50 [1]: 10.9 µM (active)
- EC50 [3]: 10.1 µM (inconclusive)

Compound: COc1ccc2[nH]c(SCC(=O)Nc3nonc3C)nc2c1
- EC50 [1]: 18.4 µM (active)
- EC50 [3]: 20.7 µM (inconclusive)

Compound: Cc1cccc(N(C)S(=O)(=O)c2nnc(NC(=O)c3ccco3)s2)c1
- EC50 [1]: > 300 µM (not active)
- EC50 [3]: > 300 µM (not active)

Compound: Cc1c(N(C)C)nc2ccccc2c1N
- IC50 [4]: 102 µM (active)

Compound: O=C(NNC(=O)c1ccccc1[N+](=O)[O-])c1cnccn1
- EC50 [1]: 76.5 µM (active)
- EC50 [3]: 1.25 µM (active)

Compound: CC(C)CS(=O)(=O)C1=NN2C(=N)/C(=C\c3ccc(OC(=O)c4ccco4)cc3)C(=O)N=C2S1
- EC50 (Protein RecA): 14.4 µM (active)

Compound: C=CCn1c(-c2cccnc2Cl)nc2ccccc21
- AC50 [5]: > 380 µM (inactive)
- EC50 (Protein RecA): > 380 µM (inactive)

Compound: CCOC(=O)c1c(NC(=O)/C=C/C(=O)O)sc(C)c1-c1ccc(F)cc1
- AC50 [5]: 14.3 µM (active)
- EC50 (Protein RecA): 6.23 µM (active)

Compound: CC(C)(C)NC(=O)C(c1ccc(Cl)cc1)N(Cc1ccco1)C(=O)CCl (configuration not stated)
- AC50 [5]: 24.1 µM (active)
- EC50 (Protein RecA): 1.97 µM (active)

Compound: Cn1c(SCC(=O)NCc2ccc(F)cc2)nc2ccccc21
- AC50 [5]: 124 µM (active)
- EC50 (Protein RecA): > 380 µM (inactive)

Compound: O=C(Oc1ccc(Br)cc1C(=S)N1CCOCC1)c1cccc([N+](=O)[O-])c1
- AC50 [5]: 18.2 µM (active)
- EC50 (Protein RecA): 23.1 µM (active)

Compound: O=C(/C=C/c1c(Cl)cccc1Cl)N1CCOCC1
- EC50 [1]: > 300 µM (not active)
- EC50 [3]: > 300 µM (not active)

Compound: COc1ccc(CCNC(=O)CNCC(c2ccccc2)N(C)C)cc1OC (configuration not stated)
- IC50 [4]: 78.4 µM (active)

Compound: OCCN1CCN(CC(O)COC(c2ccc(F)cc2)c2ccc(F)cc2)CC1 (configuration not stated)
- IC50 [4]: 121 µM (active)

Compound: Cc1ccccc1N=Nc1c(O)n(C)c2ccccc12
- EC50 [1]: > 300 µM (not active)
- EC50 [3]: > 300 µM (not active)

Compound: CN1C(=O)C(=C2CC(c3ccccc3)N(C(=O)CCl)N2)C(=O)N(C)C1=O (configuration not stated)
- AC50 [5]: 2.05 µM (active)
- EC50 (Protein RecA): 0.351 µM (active)

Compound: Cc1ccc2occ(/C=C/C(=O)O)c(=O)c2c1
- AC50 (Cytochrome P450 2C19): 28.2 µM (inconclusive)
- AC50 (Cytochrome P450 2D6): 15.8 µM (inconclusive)
- AC50 (Cytochrome P450 3A4): 22.4 µM (inconclusive)
- AC50 (Cytochrome P450 2C9): 25.1 µM (inconclusive)

Compound: CC(C)CC1C(C#N)=C(N)Oc2[nH]nc(-c3cccs3)c21 (configuration not stated)
- AC50 [5]: 48.8 µM (active)
- EC50 (Protein RecA): 58.1 µM (active)

Compound: COC(=O)c1ccc(-n2c(C)ccc2-c2ccccc2)cc1
- EC50 [1]: > 300 µM (not active)
- EC50 [3]: > 300 µM (not active)

Compound: CC1=NNC(=O)C1Cc1c(Cl)cccc1Cl (configuration not stated)
- AC50 [5]: 1.39 µM (active)
- EC50 (Protein RecA): 0.642 µM (active)

Compound: COc1cc(C=NNC(=O)c2ccccc2-n2cccc2)ccc1O
- IC50 [4]: 32.7 µM (active)

Compound: Oc1ccc(CCc2ccccn2)cc1
- IC50 [4]: 40 µM (active)

Compound: C=CCSc1nnc2c(n1)OC(c1c(C)[nH]n(-c3ccccc3)c1=O)Nc1ccccc1-2 (configuration not stated)
- AC50 (Cytochrome P450 2C19): 8.91 µM (inconclusive)
- AC50 (Cytochrome P450 2D6): 0.158 µM (inconclusive)
- AC50 (Cytochrome P450 1A2): 15.8 µM (inconclusive)

Compound: Oc1ccc(/C=N/Nc2ncc(Cl)cc2Cl)cc1
- IC50 [4]: 32.3 µM (active)

Compound: Oc1cccc(/C=N/N=C/c2cccc(O)c2O)c1O
- EC50 [1]: 42.9 µM (active)
- EC50 [3]: 24.6 µM (active)
